The record followed here is ChEMBL document CHEMBL5331130, “Analysis of Structure-Activity Relationships of Novel Inhibitors of the Macrophage Infectivity Potentiator (Mip) Proteins of Neisseria meningitidis, Neisseria gonorrhoeae, and Burkholderia pseudomallei” (J Med Chem, 2023).

Assay [1] is described as follows: Binding affinity to Burkholderia pseudomallei Mip measured after 1 hr by fluorescence polarization assay. As to conditions: read-out: Ki.
In assay [2] the test system is Burkholderia pseudomallei. Briefly: Inhibition of Burkholderia pseudomallei Mip PPIase activity assessed as remaining activity using Suc-ALPF-pNA substrate measured at 400 nM by protease coupled assay relative to control.
Assay [3] concerns Neisseria meningitidis. Briefly: Inhibition of Neisseria meningitidis Mip PPIase activity assessed as remaining activity using Suc-ALPF-pNA substrate measured at 400 nM by protease coupled assay relative to control.
In assay [4] the test system is Neisseria meningitidis. Briefly: Inhibition of Neisseria meningitidis Mip NEIS0004 assessed as remaining activity using Suc-ALPF-pNA substrate measured at 400 nM by protease coupled assay relative to control.
For assay [5], the system named is Burkholderia pseudomallei. Description: Antimicrobial activity against Burkholderia pseudomallei K96243 infected in mouse RAW264.7 cells assessed as reduction in bacteria-induced cytotoxicity at 50 uM after 24 hrs by lactate dehydrogenase release assay relative to control. The class given is functional. Details: scale not given: the % may be the effect or the level left.

The test system of assay [6] is Neisseria meningitidis. Briefly: Antimicrobial activity against Neisseria meningitidis infected in mouse RAW264.7 cells assessed as reduction in bacteria-induced cytotoxicity at 50 uM after 24 hrs by lactate dehydrogenase release assay relative to control. It is filed as functional. Details: scale not given: the % may be the effect or the level left.
Assay [7] concerns Neisseria gonorrhoeae. Description: Antimicrobial activity against Neisseria gonorrhoeae infected in mouse RAW264.7 cells assessed as reduction in bacteria-induced cytotoxicity at 50 uM after 24 hrs by lactate dehydrogenase release assay relative to control. Details: scale not given: the % may be the effect or the level left. The class given is functional.

Take `O=C(NCc1cccnc1)C(CCc1ccccc1)COC(=O)[C@@H]1CCCCN1S(=O)(=O)Cc1ccccc1` (mixture of isomers): in assay [1], the Ki came to 207 nM. Also, the Activity came to 28.7% in assay [2]; 47% in assay [3]; 8.4% in assay [4]; 93.4% in assay [5]; 16.4% in assay [6]; 63.5% in assay [7].

Take `CC[C@H](C)[C@H](OC(=O)C1CCCCN1S(=O)(=O)Cc1ccccc1)C(=O)NCc1cccnc1` (mixture of isomers): in assay [1], the inhibition constant (Ki) is 3130 nM. Besides, the Activity in assay [2] worked out at 16.8%; in assay [3] it was 73.3%; in assay [4], 9.4%; in assay [5], 94.3%; in assay [6], 58%; in assay [7] it was 35.4%.

As for `O=C(NCc1cccnc1)[C@H](CCc1ccccc1)COC(=O)[C@@H]1CCCCN1S(=O)(=O)Cc1ccccc1`, in assay [1], the Ki is 3380 nM. Moreover, the Activity worked out at 101% in assay [2]; 83.5% in assay [3]; 70% in assay [4]; 97.6% in assay [5]; 67.7% in assay [6]; 53.6% in assay [7].

Consider `O=C(NCc1cccnc1)[C@@H](NC(=O)[C@@H]1CCCCN1S(=O)(=O)Cc1ccccc1)c1ccc(F)cc1`, for which the Ki in assay [1] amounted to 73.2 nM. In addition, the Activity in assay [2] turned out to be 11.3%; in assay [3], 63.5%; in assay [4] it was 27.2%; in assay [5] it was 78.5%; in assay [6] it was 22.6%; in assay [7] it was 28%.

Consider `O=C(NCc1cccnc1)[C@H](CCc1ccccc1)NC(=O)[C@@H]1CCCCN1S(=O)(=O)Cc1ccccc1`, for which, in assay [1], the inhibition constant (Ki) stood at 10.5 nM. The Activity in assay [2] is 17.6%; in assay [3], 44.8%; in assay [4], 12.9%; in assay [5] it was 75.4%; in assay [6], 34.1%; in assay [7] it was 71.5%.

On to `C#CCOc1ccc(C[C@H](NC(=O)[C@@H]2CCCCN2S(=O)(=O)Cc2ccc(F)cc2)C(=O)NCc2cccnc2)cc1`, for which the inhibition constant Ki in assay [1] was determined as 34.3 nM. Besides, the Activity in assay [2] stood at 4.4%; in assay [3], 12.3%; in assay [4], 4.9%; in assay [5] it was 55.4%; in assay [6], 45.7%; in assay [7] it was 35.2%.
